± gives the expanded uncertainty stated by the source.
Experiment: xn = mol fraction of the nth substance listed
Details: 101 kPa, Liquid

## Cc1ccccc1C [1,2-dimethylbenzene] + CN1CCCC1=O
293.15 K, x1 = 0.0478
  mass density: 1024.81 ± 0.45 kg/m3
293.15 K, x1 = 0.0865
  mass density: 1018.48 ± 0.42 kg/m3
293.15 K, x1 = 0.1584
  mass density: 1006.82 ± 0.37 kg/m3
293.15 K, x1 = 0.2266
  mass density: 995.89 ± 0.36 kg/m3
293.15 K, x1 = 0.2714
  mass density: 988.75 ± 0.39 kg/m3
293.15 K, x1 = 0.3393
  mass density: 978.06 ± 0.44 kg/m3
293.15 K, x1 = 0.387
  mass density: 970.61 ± 0.47 kg/m3
293.15 K, x1 = 0.4321
  mass density: 963.63 ± 0.49 kg/m3
293.15 K, x1 = 0.5011
  mass density: 953.04 ± 0.54 kg/m3
293.15 K, x1 = 0.5668
  mass density: 943.08 ± 0.58 kg/m3
293.15 K, x1 = 0.6297
  mass density: 933.64 ± 0.61 kg/m3
293.15 K, x1 = 0.7099
  mass density: 921.74 ± 0.66 kg/m3
293.15 K, x1 = 0.7859
  mass density: 910.6 ± 0.7 kg/m3
293.15 K, x1 = 0.8577
  mass density: 900.18 ± 0.74 kg/m3
293.15 K, x1 = 0.9388
  mass density: 888.55 ± 0.79 kg/m3
293.15 K, x1 = 1
  mass density: 879.84 ± 0.82 kg/m3
303.15 K, x1 = 0.0565
  mass density: 1014.2 ± 0.4 kg/m3
303.15 K, x1 = 0.1122
  mass density: 1005.19 ± 0.37 kg/m3
303.15 K, x1 = 0.1895
  mass density: 992.78 ± 0.37 kg/m3
303.15 K, x1 = 0.2467
  mass density: 983.7 ± 0.41 kg/m3
303.15 K, x1 = 0.3239
  mass density: 971.56 ± 0.46 kg/m3
303.15 K, x1 = 0.3967
  mass density: 960.27 ± 0.51 kg/m3
303.15 K, x1 = 0.4565
  mass density: 951.08 ± 0.54 kg/m3
303.15 K, x1 = 0.5127
  mass density: 942.54 ± 0.58 kg/m3
303.15 K, x1 = 0.5655
  mass density: 934.58 ± 0.61 kg/m3
303.15 K, x1 = 0.6251
  mass density: 925.68 ± 0.64 kg/m3
303.15 K, x1 = 0.7076
  mass density: 913.5 ± 0.69 kg/m3
303.15 K, x1 = 0.7626
  mass density: 905.46 ± 0.72 kg/m3
303.15 K, x1 = 0.8498
  mass density: 892.86 ± 0.77 kg/m3
303.15 K, x1 = 0.9049
  mass density: 884.97 ± 0.8 kg/m3
303.15 K, x1 = 0.9639
  mass density: 876.58 ± 0.84 kg/m3
303.15 K, x1 = 1
  mass density: 871.48 ± 0.86 kg/m3
313.15 K, x1 = 0.0485
  mass density: 1006.39 ± 0.37 kg/m3
313.15 K, x1 = 0.0922
  mass density: 999.35 ± 0.35 kg/m3
313.15 K, x1 = 0.1795
  mass density: 985.39 ± 0.4 kg/m3
313.15 K, x1 = 0.2368
  mass density: 976.31 ± 0.44 kg/m3
313.15 K, x1 = 0.3036
  mass density: 965.84 ± 0.48 kg/m3
313.15 K, x1 = 0.3679
  mass density: 955.86 ± 0.52 kg/m3
313.15 K, x1 = 0.4285
  mass density: 946.56 ± 0.56 kg/m3
313.15 K, x1 = 0.4894
  mass density: 937.31 ± 0.6 kg/m3
313.15 K, x1 = 0.5375
  mass density: 930.05 ± 0.63 kg/m3
313.15 K, x1 = 0.6034
  mass density: 920.22 ± 0.67 kg/m3
313.15 K, x1 = 0.673
  mass density: 909.94 ± 0.71 kg/m3
313.15 K, x1 = 0.7355
  mass density: 900.8 ± 0.74 kg/m3
313.15 K, x1 = 0.8196
  mass density: 888.65 ± 0.79 kg/m3
313.15 K, x1 = 0.8767
  mass density: 880.48 ± 0.82 kg/m3
313.15 K, x1 = 0.9289
  mass density: 873.06 ± 0.85 kg/m3
313.15 K, x1 = 1
  mass density: 863.03 ± 0.89 kg/m3
323.15 K, x1 = 0.0478
  mass density: 997.82 ± 0.35 kg/m3
323.15 K, x1 = 0.1014
  mass density: 989.16 ± 0.39 kg/m3
323.15 K, x1 = 0.1603
  mass density: 979.74 ± 0.43 kg/m3
323.15 K, x1 = 0.2364
  mass density: 967.69 ± 0.48 kg/m3
323.15 K, x1 = 0.3026
  mass density: 957.34 ± 0.52 kg/m3
323.15 K, x1 = 0.3575
  mass density: 948.83 ± 0.55 kg/m3
323.15 K, x1 = 0.4244
  mass density: 938.56 ± 0.59 kg/m3
323.15 K, x1 = 0.4915
  mass density: 928.37 ± 0.63 kg/m3
323.15 K, x1 = 0.5582
  mass density: 918.35 ± 0.67 kg/m3
323.15 K, x1 = 0.6217
  mass density: 908.9 ± 0.71 kg/m3
323.15 K, x1 = 0.6735
  mass density: 901.26 ± 0.74 kg/m3
323.15 K, x1 = 0.7536
  mass density: 889.56 ± 0.79 kg/m3
323.15 K, x1 = 0.8206
  mass density: 879.9 ± 0.82 kg/m3
323.15 K, x1 = 0.8728
  mass density: 872.43 ± 0.85 kg/m3
323.15 K, x1 = 0.9511
  mass density: 861.36 ± 0.9 kg/m3
323.15 K, x1 = 1
  mass density: 854.51 ± 0.93 kg/m3
333.15 K, x1 = 0.0579
  mass density: 986.94 ± 0.4 kg/m3
333.15 K, x1 = 0.1023
  mass density: 979.83 ± 0.43 kg/m3
333.15 K, x1 = 0.1814
  mass density: 967.25 ± 0.48 kg/m3
333.15 K, x1 = 0.2556
  mass density: 955.59 ± 0.52 kg/m3
333.15 K, x1 = 0.3135
  mass density: 946.59 ± 0.56 kg/m3
333.15 K, x1 = 0.3815
  mass density: 936.11 ± 0.6 kg/m3
333.15 K, x1 = 0.4478
  mass density: 926.02 ± 0.64 kg/m3
333.15 K, x1 = 0.5014
  mass density: 917.94 ± 0.68 kg/m3
333.15 K, x1 = 0.5654
  mass density: 908.37 ± 0.71 kg/m3
333.15 K, x1 = 0.6122
  mass density: 901.45 ± 0.74 kg/m3
333.15 K, x1 = 0.6632
  mass density: 893.96 ± 0.77 kg/m3
333.15 K, x1 = 0.8105
  mass density: 872.67 ± 0.85 kg/m3
333.15 K, x1 = 0.8744
  mass density: 863.57 ± 0.89 kg/m3
333.15 K, x1 = 0.9214
  mass density: 856.93 ± 0.92 kg/m3
333.15 K, x1 = 0.9632
  mass density: 851.06 ± 0.94 kg/m3
333.15 K, x1 = 1
  mass density: 845.91 ± 0.96 kg/m3
343.15 K, x1 = 0.0462
  mass density: 979.94 ± 0.43 kg/m3
343.15 K, x1 = 0.1045
  mass density: 970.59 ± 0.46 kg/m3
343.15 K, x1 = 0.1614
  mass density: 961.55 ± 0.5 kg/m3
343.15 K, x1 = 0.2153
  mass density: 953.05 ± 0.53 kg/m3
343.15 K, x1 = 0.2864
  mass density: 941.94 ± 0.58 kg/m3
343.15 K, x1 = 0.3576
  mass density: 930.94 ± 0.62 kg/m3
343.15 K, x1 = 0.4102
  mass density: 922.9 ± 0.66 kg/m3
343.15 K, x1 = 0.4828
  mass density: 911.91 ± 0.7 kg/m3
343.15 K, x1 = 0.5477
  mass density: 902.2 ± 0.74 kg/m3
343.15 K, x1 = 0.6065
  mass density: 893.5 ± 0.77 kg/m3
343.15 K, x1 = 0.6735
  mass density: 883.68 ± 0.81 kg/m3
343.15 K, x1 = 0.7533
  mass density: 872.13 ± 0.86 kg/m3
343.15 K, x1 = 0.8095
  mass density: 864.07 ± 0.89 kg/m3
343.15 K, x1 = 0.8745
  mass density: 854.83 ± 0.93 kg/m3
343.15 K, x1 = 0.9407
  mass density: 845.51 ± 0.96 kg/m3
343.15 K, x1 = 1
  mass density: 837.23 ± 1 kg/m3
353.15 K, x1 = 0.0475
  mass density: 970.95 ± 0.46 kg/m3
353.15 K, x1 = 0.1037
  mass density: 961.94 ± 0.5 kg/m3
353.15 K, x1 = 0.1582
  mass density: 953.26 ± 0.53 kg/m3
353.15 K, x1 = 0.2167
  mass density: 944.03 ± 0.57 kg/m3
353.15 K, x1 = 0.2633
  mass density: 936.72 ± 0.6 kg/m3
353.15 K, x1 = 0.34
  mass density: 924.83 ± 0.65 kg/m3
353.15 K, x1 = 0.4067
  mass density: 914.62 ± 0.69 kg/m3
353.15 K, x1 = 0.4529
  mass density: 907.6 ± 0.72 kg/m3
353.15 K, x1 = 0.5184
  mass density: 897.76 ± 0.76 kg/m3
353.15 K, x1 = 0.5689
  mass density: 890.24 ± 0.79 kg/m3
353.15 K, x1 = 0.6322
  mass density: 880.91 ± 0.82 kg/m3
353.15 K, x1 = 0.7097
  mass density: 869.62 ± 0.87 kg/m3
353.15 K, x1 = 0.7859
  mass density: 858.64 ± 0.91 kg/m3
353.15 K, x1 = 0.8511
  mass density: 849.36 ± 0.95 kg/m3
353.15 K, x1 = 0.9354
  mass density: 837.48 ± 1 kg/m3
353.15 K, x1 = 1
  mass density: 828.47 ± 1 kg/m3

From the NIST ThermoML archive (doi:10.1016/j.jct.2006.11.003)
